Values after ≈ are worked out from the molar mass of the structure shown.
What was measured:
[1] = DPPH radical-capturing activity; conditions: concentration at which DPPH radical scavenging is 50%
Excerpt: [table] […] The extent of activity was expressed in terms of DPPH Radial Scavenging (%) calculated according to the following formula: DPPH Radial Scavenging (%)=(A−B)/A×100 where A: absorbance without addition of sample, B: absorbance with addition of sample. […]

[2] = system: B16 mouse melanoma cells (B16-F1 cells, ATCC No. CRL-6323); assay: Melanin formation-inhibiting test (extracellular melanin, 96-well plate method); type: cell-based; conditions: for IC50: Mus musculus, extracellular melanin, B16-F1 cells, read-out: Melanin formation inhibition IC50; for Melanin formation inhibition, % Inhibition at 0.001%: test concentration 0.001%, 3 days, theophylline 0.5 mM
Description: Measurements were made by the 96-well plate method using […] mouse melanoma cells (B16-F1 cells, ATCC No. CRL-6323) purchased from Dainippon Pharmaceutical. The cells (1×10^4) were sowed into each well and cultured in 10% FCS- and 1% antibiotic-containing D-MEM for 24 hours (37° C., 5% CO2), the medium was then replaced with D-MEM supplemented with the test substance and theophylline (0.5 mM), and cultivation was further continued for 3 days. The solvent (ethanol) for the test substance was added to the medium in a final concentration of 1%. An equal volume of HEPES buffer (pH 6.8)/ethanol (9:1) was added to the culture supernatant obtained by centrifugation and the absorbance at 475 nm to 660 nm was measured on the microplate reader EL-340 (BIO-TEK INSTRUMENT), and the melanin formation-inhibiting activity was evaluated in terms of the amount of extracellular melanin.

SMILES | DPPH radical scavenging IC50 [1] [µg/mL] | IC50 [2] [µg/mL] | Melanin formation inhibition, % Inhibition at 0.001% [2] [%]
N[C@@H](CCC(=O)N[C@@H](CS)C(=O)NCC(=O)O)C(=O)O [Glutathione] | 13.5 |  | 
O=C1O[C@H]([C@@H](O)CO)C(O)=C1O [Ascorbic acid] | 4.1 |  | 
O=c1cc(CO)occ1O [Kojic acid] |  | 12.9 (≈ 90.8 µM) | 25.7
OC[C@H]1O[C@@H](Oc2ccc(O)cc2)[C@H](O)[C@@H](O)[C@@H]1O [Arbutin] |  | 12.1 (≈ 44.4 µM) | 32.4

From US8101211B2, “Compositions for retarding skin aging” (Kabushiki Kaisha Yakult Honsha, priority 2000, dated 2012)
